In brackets after ≈: the same amount, converted by molar mass. Like-named read-outs stand apart in the source and are kept apart here.
Experiments:
[1] = HPLC area %, listed as Amorphous Mono-HCl Salt of Compound A1
Procedure: (§1) Stress Experiments. Solids are stressed under different temperature or relative humidity (RH) environments for a measured time period. Specific RH values are achieved by placing the sample inside sealed chambers containing saturated salt solutions, as known in the art. The salt solutions are selected and prepared following an ASTM standard procedure. Samples are analyzed by XRPD immediately after removal from the stress environment.
Analyses are carried out on an Agilent® model 1100 high performance liquid chromatograph using gradient elution on a reversed phase column utilizing ultraviolet (UV) detection. Approximately 25 mg of the sample is weighed accurately and dissolved in methanol/water/trifluoroacetic acid (35:65:0.05) to a volume of 50 mL. The sample solution is analysed using the conditions specified below:
The content of the drug and related substances are quantified by area (%).
Chemical Stability. The chemical stability of Form I of the mono-HCl salt of Compound A1 was assessed by stressing the material at various temperature/relative humidity/light conditions, then analyzing by HPLC.
Chemical Stability Data. The chemical stability of a sample of Form I of the sesquifumarate salt of Compound A1 was assessed by stressing the material at various temperature/relative humidity/light conditions, then analyzing by HPLC.

[2] = for Water content: 3 days, KF
Procedure: as §1
Modulated differential scanning calorimetry data are obtained on a TA Instruments differential scanning calorimeter 2920 equipped with a refrigerated cooling system (RCS). The sample is placed into an aluminum DSC pan, and the weight is accurately recorded. The pan is covered with a lid with is either crimped or uncrimped. MDSC data are obtained using a modulation amplitude of +/−0.8° C. and a 60 second period with an underlying heating rate of about 2° C./min. The temperature and the heat capacity are calibrated using indium metal and sapphire as the calibration standards, respectively. The reported glass transition temperature is obtained from the inflection of the step change in the reversible heat flow versus temperature curve.
Physical Stability. Physical stability measurements were performed on the amorphous form of the mono-HCl salt of Compound A1. The amorphous HCl salt prepared by spray drying was set down under two conditions (40° C./75% RH and 25° C./60% RH) for physical stability studies.
To investigate the impact of water on the amorphous mono-HCl salt, the material was stored at various RH conditions controlled by saturated salt solutions. Each material was checked by PLM (morphology), KF (water content), and mDSC (Tg value) after 3 days.

[3] = Solubility in water and aqueous acid media; type: physicochemical; settings: thermodynamic from solid
Procedure: A weighed sample is treated with aliquots of the test solvent at room temperature or elevated temperature. Complete dissolution of the test material is determined by visual inspection. Solubility is estimated based on the total solvent used to provide complete dissolution. The actual solubility may be greater than the value calculated because of the use of solvent aliquots that were too large or due to a slow rate of dissolution. […] If complete dissolution is achieved as a result of only one aliquot addition, the solubility is expressed as “greater than”. Solubility of a salt may be expressed as the mass of salt dissolved per unit volume of solution, (denoted as, for example, “mg/mL”), or as the free base equivalent (denoted as, for example, “mgA/mL”).
(§2) Solubility and Dissolution Rate Data.

[4] = Equilibrium solubility at 25° C.; type: physicochemical; settings: thermodynamic from solid
Source text: (§3) Solubility and Dissolution Rate Data. […]

[5] = Solubility in simulated biological media; type: physicochemical; settings: thermodynamic from solid, mean ± SD, n = 2
Source text: as §2, §3

[6] = Partition coefficient LogD; type: physicochemical; settings: pH 7.4; free base
[7] = system: rat; test: Punished responding procedure (modified Geller-Seifter conflict test); settings: for Rate of Responding: Punished responding / Rate of Responding: Unpunished responding: 60 minute pretreatment
Source text: Method. In the conflict test, hungry animals were trained to lever-press for food delivery in a standard operant chamber under 2 conditions. In the first condition, referred to as the unsuppressed component, food was delivered on average after 17 lever-presses were made (also called a VR17 schedule of reinforcement). In the second condition, referred to as the suppressed component and signaled by flashing lights inside the operant chamber, food was also delivered following an average of 17 lever-presses, but electric shock was additionally delivered to the floor of the cage under a separate VR17 schedule. Daily sessions consisted of 5 alternating presentations of each component type: suppressed (3 minutes in duration) and unsuppressed (2 minutes in duration). The number of lever presses emitted in the suppressed component was obviously low relative to the unsuppressed component.
Drug Administration and Preparation. […] Monday and Wednesday were washout/baseline days.
Apparatus. Standard 2-lever operant chambers were used (Med Associates). The chambers were fitted with 2 retractable response levers and a stimulus lamp over each of the 2 levers. A pellet dispenser delivered 45 mg food pellets, (Bio Serv) to a cup located inside of the chamber below and between the 2 response levers. A lamp at the top and back of the chamber served as houselights. The grid floors of the operant chambers were interfaced to shock generators and scramblers (Med Associates). All events in the chambers were controlled and monitored by a microprocessor.
Procedures. There were 2 components in the procedure: 1) an unsuppressed responding component (unpunished) with 2 minutes in duration; and 2) a suppressed responding component (punished) with 3 minutes in duration.
In the unpunished component, the houselights and both stimulus lamps over the response levers were turned on, the lever on the left-hand side of the chamber extended, and a food pellet was delivered following an average of 17 responses on the lever in the chamber (range 3 to 40 responses)—a variable-ratio 17 schedule (VR17).
In the punished component (which followed the unpunished component), the right-hand lever was extended into the chamber; the stimulus lamps and houselights were turned on and off at 1 second intervals, in succession, which served as a cue for this component; and food was available under a VR17 schedule, but was accompanied by an electrical current (0.5 second duration) that was delivered to the grid floor of the chamber under an independent VR17 schedule. The level of the current was adjusted for each individual subject until responding was reduced in the punished component to a level that was about 5% to 10% that of the unpunished component, and ranged from 0.2 mA to 0.75 mA. Unpunished and punished components were separated by 10 second time-out periods in which both response levers were retracted and all stimulus lamps turned off. 2 minute unpunished and 3 minute punished components alternated until 5 of each were completed. Daily sessions always began with the unpunished responding component. […] Several doses were tested on a given test day in different subjects. Each dose, then, was tested in different sub-set of rats.
Data Analysis. The dependent variables recorded were the rate of responding in unpunished and punished components (total responses/total time under the component) and the number of shocks delivered.

[8] = Dissociation constant (pKa); type: physicochemical; settings: piperazine nitrogen of free base
[9] = 0.1M phosphate buffer, pH 7.5, aqueous buffer, initial pH 7.5
[10] = FeSSIF (fed-state simulated intestinal fluid), pH 5.03, fessif, initial pH 5.03
[11] = SGF (simulated gastric fluid), pH 1.3, simulated gastric fluid, initial pH 1.3
[12] = simulated gastric fluid (SGF), pH 1.3, simulated gastric fluid, SGF (simulated gastric fluid), initial pH 1.3

Q: What does the source list for `CCN(CC)C(=O)c1ccc([C@H](c2cccc(N)c2)N2CCN(Cc3ccc(F)cc3)CC2)cc1` [4-{(R)-(3-aminophenyl)[4-(4-fluorobenzyl)piperazin-1-yl]methyl}-N,N-diethylbenzamide]?
A: % Purity after 60° C./80% RH, 2 wks ([1]; 60° C./80% RH, 2 weeks): 94.4%; % Purity after 60° C./80% RH, 4 wks ([1]; 60° C./80% RH, 4 weeks): 94.5%; % Purity after 80° C., 2 wks ([1]; 80° C., 2 weeks): 98.7%; % Purity after 80° C., 4 wks ([1]; 80° C., 4 weeks): 98.6%; Purity after Photostability 3X ICH conditions ([1]; Photostability 3X ICH conditions): 82.3%; Initial Purity ([1]; initial, before storage): 98.8%; physical stability [2]: physically stable; physical stability (appearance) [2]: deliquesced and became brown in color; Water content ([2]; 23.1% RH (saturated KOAc)): 3.2%; Water content ([2]; 43.3% RH (saturated K2CO3)): 5.0%; Water content ([2]; 54.4% RH (saturated Mg(NO3)2)): 6.2%; Water content ([2]; 75.5% RH (saturated NaCl)): 8.2%; Water content ([2]; 85.1% RH (saturated KCl), listed as Amorphous Mono-HCl Salt of Compound A1): 9.5%; Water content ([2]; 85.1% RH (saturated KCl), listed as amorphous mono-HCl salt): 9.5%; Water content ([2]; 97.3% RH (saturated K2SO4)): 14.7%; water content (Karl-Fisher) of the resulting material ([2]; after 17 days at 25° C./60% RH (open)): 6.1%; water content of the initial material ([2]; initial material, before storage): about 2.8%; solubility ([3]; 0.1M phosphate acid, pH 3.3, aqueous buffer, 0.1M phosphate acid, pH=3.3, read-out: solubility in 0.1M phosphate acid): > 40 mg/mL; solubility ([3]; 0.1M phosphate acid, pH 3.5, aqueous buffer, 0.1M phosphate acid, pH=3.5, read-out: solubility in 0.1M phosphate acid): 12 mg/mL (≈ 25.3 mM); solubility ([3]; 0.1 M phosphoric acid, pH 3.3, aqueous buffer, ambient temperature, pH of about 3.3 (0.1 M phosphoric acid), read-out: solubility in water (0.1 M phosphoric acid)): > 40 mg/mL; solubility ([3]; 0.1 M phosphoric acid, pH 3.5, aqueous buffer, ambient temperature, pH of about 3.5 (0.1 M phosphoric acid), read-out: solubility in water (0.1 M phosphoric acid)): ~12 mg/mL (≈ 25.3 mM); solubility ([3]; 0.1N HCl, pH 2, simulated gastric fluid, 0.1N HCl, pH about 2, read-out: solubility in 0.1N HCl): 24.9 mg/mL (≈ 52.5 mM); solubility ([3]; water, pH 3.8, water, ambient temperature, water with a pH of about 3.8, read-out: solubility in water): ~24 mg/mL (≈ 50.6 mM); solubility ([3]; water, pH 3.8, water, water, pH=3.8, read-out: solubility in water): 24 mg/mL (≈ 50.6 mM); solubility ([3]; water, pH 4.2, water, ambient temperature, water with a pH of about 4.2, read-out: solubility in water): > 41 mg/mL; solubility ([3]; water, pH 4.2, water, water, pH=4.2, read-out: solubility in water): > 41 mg/mL; solubility thermodynamic ([4]; 0.1 M citrate buffer, aqueous buffer, pH 4.5, Citrate 0.1M): 15.6 mg/mL (≈ 32.9 mM); solubility thermodynamic ([4]; 0.1 M phosphate buffer, aqueous buffer, pH 7.8, Phosphate 0.1M): 0.16 mg/mL (≈ 0.337 mM); solubility thermodynamic ([4]; aqueous buffer, 0.1N NaOH): 0.092 mg/mL (≈ 0.194 mM); solubility thermodynamic ([4]; simulated gastric fluid, 0.1N HCl): 21.6 mg/mL (≈ 45.5 mM); solubility thermodynamic ([4]; Pure water): 8.7 mg/mL (≈ 18.3 mM); solubility at 3 h [5, 9]: 0.29 mg/mL (≈ 0.611 mM); solubility at 24 h [5, 9]: 0.1 mg/mL (≈ 0.211 mM); solubility at 3 h [5, 10]: 3.4 mg/mL (≈ 7.16 mM); solubility at 24 h [5, 10]: 3.06 mg/mL (≈ 6.45 mM); solubility at 3 h [5, 11]: 23 mg/mL (≈ 48.5 mM); solubility at 24 h [5, 11]: 22 mg/mL (≈ 46.4 mM); solubility at 3 h [5, 12]: 23.1 ± 0.12 mg/mL (≈ 48.7 mM); solubility at 24 h [5, 12]: 21.9 ± 0.23 mg/mL (≈ 46.1 mM)

Q: Which results are given for `CCN(CC)C(=O)c1ccc([C@H](c2cccc(N)c2)N2CCN(Cc3ccc(F)cc3)CC2)cc1` [Compound A1, 4-{(R)-(3-aminophenyl)[4-(4-fluorobenzyl)piperazin-1-yl]methyl}-N,N-diethylbenzamide]?
A: logD [6]: 2.53; sedative/hyperactive properties ([7]; observations of test subjects in their home cage): does not possess sedative/hyperactive properties; efficacy in the model ([7]; rat, 0.21 μmol/kg): not effective; Percent of Control: Punished responding ([7]; rat, 0.21 μmol/kg by mouth): 107 ± 19.3% of Control; Percent of Control: Unpunished responding ([7]; rat, 0.21 μmol/kg by mouth): 103 ± 1.63% of Control; Rate of Responding: Punished responding ([7]; rat, 0.21 μmol/kg by mouth): 0.11 ± 0.02; Rate of Responding: Unpunished responding ([7]; rat, 0.21 μmol/kg by mouth): 2.06 ± 0.11; Percent of Control: Punished responding ([7]; rat, 0.63 μmol/kg by mouth): 273 ± 39.2% of Control; Percent of Control: Unpunished responding ([7]; rat, 0.63 μmol/kg by mouth): 92.1 ± 5.12% of Control; Rate of Responding: Punished responding ([7]; rat, 0.63 μmol/kg by mouth): 0.24 ± 0.03; Rate of Responding: Unpunished responding ([7]; rat, 0.63 μmol/kg by mouth): 2.02 ± 0.14; Percent of Control: Punished responding ([7]; rat, 2.1 μmol/kg by mouth): 298 ± 132% of Control; Percent of Control: Unpunished responding ([7]; rat, 2.1 μmol/kg by mouth): 106 ± 5.60% of Control; Rate of Responding: Punished responding ([7]; rat, 2.1 μmol/kg by mouth): 0.18 ± 0.04; Rate of Responding: Unpunished responding ([7]; rat, 2.1 μmol/kg by mouth): 1.95 ± 0.15; increase in punished responding (maximally efficacious dose) ([7]; rat, 2.11 μmol/kg): about 300%; Percent of Control: Punished responding ([7]; rat, 6.3 μmol/kg by mouth): 207 ± 67.2% of Control; Percent of Control: Unpunished responding ([7]; rat, 6.3 μmol/kg by mouth): 106 ± 2.94% of Control; Rate of Responding: Punished responding ([7]; rat, 6.3 μmol/kg by mouth): 0.17 ± 0.03; Rate of Responding: Unpunished responding ([7]; rat, 6.3 μmol/kg by mouth): 1.92 ± 0.13; Percent of Control: Punished responding ([7]; rat, 21.1 μmol/kg by mouth): 272 ± 100% of Control; Percent of Control: Unpunished responding ([7]; rat, 21.1 μmol/kg by mouth): 95.5 ± 4.08% of Control; Rate of Responding: Punished responding ([7]; rat, 21.1 μmol/kg by mouth): 0.20 ± 0.04; Rate of Responding: Unpunished responding ([7]; rat, 21.1 μmol/kg by mouth): 1.69 ± 0.12; effect on unpunished responding ([7]; rat, at the doses tested (0.21 to 21.1 μmol/kg)): did not significantly decrease; pKa [8]: 7.26

From patent publication US20110207745A1 (priority 2009, published 2011)
